# Laboratory results published in patent US10829528B2, “Therapeutic agents for neurological and psychiatric disorders” (VIB VZW, priority 2016, dated 2020).
# How the values were obtained:
# GABABR1a = target: T1, GABABR1a (Homo sapiens, UniProt Q9UBS5); assay: Cell surface binding assay: Fc-tagged APP proteins applied to GABABR-transfected HEK293 cells, bound Fc detected by immunofluorescence; assay type: cell-based; details: Fc-tagged proteins 500 nM, 1 hr at RT; GFP-transfected cells as negative control
# T1 construct: expressed in transfected cells; host or cells: HEK293T
# Experimental: To confirm the APPα-GABABR interaction and identify the interacting domains, we used a cell-based binding assay. Purified Fc-sAPPα (or its domains) were exogenously applied to GABABR-transfected HEK293 cells. Bound Fc-sAPPα was determined by immunofluorescence.
# (§1) We first determined which GABAB subunit and isoform sAPPα bound. The GABABR is comprised of two subunits, the GABABR1 and the GABABR2 subunit. GABABR1 is present as two main isoforms (1a and 1b), with the only difference between these isoforms being the presence of two protein-binding sushi repeats in the ectodomain of GABABR1a (FIG. 1A-B). […] The sequence of the Sushi domain 1 is […].
# HEK293T cells were transfected with GFP (as negative control) or pdisplay-GABABR-1a, -1b, or -2 plasmids using Fugene6 (Promega). Twenty-four hours after transfection, the cells were incubated with Fc (as negative control) or the various Fc-tagged APP proteins (500 nM, in Dulbecco's modified Eagle's medium [DMEM] supplemented with 20 mM HEPES [pH 7.4]) for 1 hr at RT. After three brief washes with DMEM/20 mM HEPES (pH 7.4), cells were fixed in 4% paraformaldehyde, 4% sucrose in PBS. […] Image thresholding was set with ImageJ software using constant settings per experiment and the area of Fc binding was measured relative to cell area.
# CA1 pyramidal neurons = assay: Long-term potentiation in hippocampal slices; assay type: cell-based; details: non-primed high frequency stimulation protocol for agonists
# Experimental: Long-term potentiation (LTP) is induced by stimulation of Schaffer collateral fibers and the response of CA1 pyramidal neurons is measured by extracellular recordings. For measuring antagonists, a primed burst stimulation protocol is used to activate GABABR receptors. Under this protocol, an antagonist blocks induction of LTP. For measuring agonists, a non-primed high frequency stimulation protocol is used.
# [1] = test system: primary hippocampal neurons; assay: mEPSCs & mIPSCs in cultured primary hippocampal neurons (wild type); assay type: cell-based, mouse; details: acute application, 250 nM each
# Experimental: mEPSCs & mIPSCs are measured in cultured primary hippocampal neurons at baseline and following acute application of agonists. Excitatory terminals selectively express the sushi domain-containing GABABR1a isoform (ref18), where it functions to inhibit neurotransmitter release (ref 24). Acute exposure of primary hippocampal neurons from wild type mice to 30μM baclofen, a GABABR agonist, or 250 nM sAPPα (Fc cleaved) reduces the frequency of miniature excitatory postsynaptic currents (mEPSCs) by 68% (FIG. 8 a,b) and 39% (FIG. 8 c,d), respectively, with no effect on mEPSC amplitude (FIG. 8e). […] Acute application of 30 μM baclofen or 250 nM purified sAPPα reduces the frequency of miniature inhibitory postsynaptic currents (mIPSCs) by 63% (FIG. 8a, 9a) and 44% (FIG. 8c, 9b), respectively, which is blocked by pretreatment with the GABABR antagonist CGP55845 (CGP, 5 μM) (FIG. 8f, 9d). Application of sAPPα causes a minor (14%) reduction on mIPSC amplitude (FIG. 8e, 9c). […] Baclofen is known to reduce the frequencies of mEPSCs and mIPSCs, which we have also confirmed. […] To confirm that the agonist is acting through GABABR1a, the agonist is tested in cultures with shRNA mediated knockdown of GABABR1a or antisense oligonucleotides mediated exon skipping of the exon encoding the Sushi domain 1 of GABABR1a. Antagonists are tested by treatment in combination with the agonist, Baclofen. […] As an antagonist we test an antibody against the sushi domain sequence (SEQ ID No: 5): […] SWTDMDTPSRCV. An antibody specifically binding to this domain which acts as an antagonist increases the frequencies of mEPSCs and mIPSCs. sAPPα also reduces mEPSC and mIPSC frequency in App/Aplp1 dKO cultures (FIG. 8j, 9f), excluding the possibility that sAPPα interferes with a complex of full-length APP and GABABR1 to exert its effect on GABABR signaling.
# Hippocampal neurons were cultured from E18 C57/B16 wild type mice or APP/APLP1 dKO mice (provided by Ulrike Muller46) and plated on poly-D-lysine (Millipore), and laminin (Invitrogen) coated coverslips (Nalge Nunc International). Neurons were maintained in Neurobasal medium (Invitrogen) supplemented with B27, glucose, glutamax, penicillin/streptomycin (Invitrogen) and 25 μM β-mercaptoethanol.
# Single neurons from wild type or APP/APLP1 null mutant embryos (E18) were recorded within the large neuronal network at DIV 12-15. The intracellular whole-cell pipette medium contained (in mM): 136 KCl, 18 HEPES, 4 Na-ATP, 4.6 MgCl2, 15 Creatine Phosphate, 1 EGTA and 50 U/ml Phospocreatine Kinase (300 mOsm, pH 7.30). Regular external solution contained 2 mM/2 mM Ca2+/Mg2+(in mM: 140 NaCl, 2.4 KCl, 2 CaCl2), 2 MgCl2, 10 HEPES, 14 Glucose (300 mOsm, pH 7.30)) and TTX (1 μM). Pharmacological reagents (30 μM baclofen, 5 μM CGP), sAPLP1, full length sAPP and sAPP derived peptides (250 nM each) were bath applied (dissolved in external medium described above) using a separate gravity driven application inlet. Recordings were done in whole cell voltage clamp configuration at −70 mV with a double EPC-10 amplifier (HEKA Elektronik) under control of Patchmaster v2×32 software (HEKA Elektronik). Currents were low-pass filtered at 3 kHz and stored at 20 kHz. Patch pipettes were pulled from borosilicate glass using a multi-step puller (P-1000; Sutter Instruments). Pipette resistance ranged from 3 to 5 MΩ and was compensated to 75-80%. Only cells with series resistances <15 MΩ were included in analysis. All recordings were done at room temperature. Spontaneous events were detected using Mini Analysis program (Synaptosoft). mEPSCs and mIPSCs were separated on the basis of their distinct decay kinetics, using a threshold of 5 ms47. Baseline was determined from an average of 60 sec of recordings prior to protein or drug treatment. Effect of treatment was determined from an average of 30 sec recordings after 140 sec of protein or drug treatment.
# [2] = target: T2, sushi1 domain of GABABR1a (Homo sapiens, UniProt Q9UBS5); assay: Isothermal titration calorimetry (ITC) with purified sushi1; assay type: binding
# T2 construct: made in house
# Experimental: as §1
# All ITC experiments were carried out on a MicroCal iTC200 system. For ITC experiments involving APP constructs expressed in HEK293 cells, the purified GABABR1a-Sushi1 domain, sAPPα, CuBDAcD, AcD and CuBD constructs were buffer-exchanged by size exclusion chromatography in 20 mM Na-HEPES pH 7.0, 150 mM NaCl supplemented with 5 mM CaCl2. Concentrated samples were diluted and degassed before the experiment at the concentrations reported in the FIG. legends. sAPP fragments (all of them at 30 μM) were placed in the MicroCal sample cell and matching buffer was placed in the reference cell. Sushi1 (300 μM) was in the syringe and was injected into the cell in a series of 1 μL injections at 25° C. All the datasets were subtracted with a reference data consisting of serial injections of Sushi1 in the cell, containing buffer only under the same conditions. For ITC experiments involving synthetic APP peptides, the Sushi-1 protein was dialysed overnight to PBS buffer. […]
# T1 sequence (Q9UBS5 20-591 limits assumed): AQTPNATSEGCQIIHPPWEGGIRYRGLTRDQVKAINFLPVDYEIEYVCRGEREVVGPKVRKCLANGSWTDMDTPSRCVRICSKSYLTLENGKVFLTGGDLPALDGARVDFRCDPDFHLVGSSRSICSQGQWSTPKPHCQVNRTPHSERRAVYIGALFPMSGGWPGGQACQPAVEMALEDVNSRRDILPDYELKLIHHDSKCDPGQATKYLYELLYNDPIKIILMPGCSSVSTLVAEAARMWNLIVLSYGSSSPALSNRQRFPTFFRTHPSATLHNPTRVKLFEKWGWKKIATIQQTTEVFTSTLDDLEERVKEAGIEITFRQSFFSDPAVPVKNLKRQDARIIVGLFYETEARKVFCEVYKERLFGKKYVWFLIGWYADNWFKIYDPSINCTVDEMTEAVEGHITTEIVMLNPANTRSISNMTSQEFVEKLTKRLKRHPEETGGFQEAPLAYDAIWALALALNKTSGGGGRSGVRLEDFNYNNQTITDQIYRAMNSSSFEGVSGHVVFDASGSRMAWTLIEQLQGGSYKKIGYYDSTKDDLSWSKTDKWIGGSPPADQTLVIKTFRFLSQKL
# T2 sequence (Q9UBS5 26-97): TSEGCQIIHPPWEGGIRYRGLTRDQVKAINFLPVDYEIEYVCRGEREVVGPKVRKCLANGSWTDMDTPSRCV
substance,measurement,setting,value
"ED: Fc-fusion of the 33 aa extension domain, mouse APP695 195-227aa",binding to GABABR1a-expressing HEK293 cells (immunofluorescence),GABABR1a,sufficient for binding to GABABR1a
NVDSADAEEDDSDVWWGGADTDYADGSEDKVVE (listed as Homo sapiens) [Extension domain of human sAPPα (33 amino acids)],effect on LTP,CA1 pyramidal neurons,facilitates LTP
same,effect on mEPSC frequency (in words),[1],reduces the frequencies of mEPSCs and mIPSCs
same,effect on mIPSC frequency (in words),[1],reduces the frequencies of mEPSCs and mIPSCs
"GGADTDYADG (listed as Homo sapiens) [residues 211-220, synthetic peptide within the ExD, 211-220AA of APP695]",binding to sushi1 by ITC (in words),[2],fails to bind
